Assay results published in PubChem BioAssay (NCI).
“And” between values parts separate entries of the source, which are not always exact repeats. Equal entries are not always repeated.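 The compound was tested at five concentrations on cells cultured in 96-well plates, with a 48-hour exposure period. Abbreviation: GI50, concentration required for 50% inhibition of growth. TGI marks complete inhibition of growth.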

What was measured:
Experiment in all cases: inhibition of tumour cell growth, NCI panel, 48 h
[1] = tested on: A549 NSCLC
[2] = tested on: CAKI-1 renal
[3] = tested on: CCRF-CEM leukemia
[4] = tested on: EKVX NSCLC
[5] = tested on: K-562 leukemia
[6] = tested on: MDA-MB-435
[7] = tested on: OVCAR-4 ovarian
[8] = tested on: SK-MEL-2 melanoma
[9] = tested on: TK-10 renal
[10] = tested on: UACC-257 melanoma

SMILES	GI50 [1]	TGI [1]	GI50 [2]	TGI [2]	GI50 [3]	TGI [3] [µM]	GI50 [4]	TGI [4]	GI50 [5]	TGI [5]	GI50 [6]	TGI [6]	GI50 [7]	TGI [7] [µM]	GI50 [8]	TGI [8]	GI50 [9]	TGI [9]	GI50 [10]	TGI [10]
O=C1C(Cl)=C(Nc2cccc(O)c2)C(=O)N1c1cc(Cl)c(Cl)cc1Cl	21.7 µM	47.5 µM	19.2 µM	48.1 µM	0.45 µM	> 100	23 µM	73.7 µM	17.4 µM	40.3 µM	22.7 µM	55.9 µM	22.7 µM	51.8	15 µM	29.6 µM	23.8 µM	48.6 µM	30.3 µM	77.2 µM
Oc1ccc(CCCCCCc2ccc(O)cc2)cc1	6.62 µM	23 µM	1.75 µM	7.58 µM	0.0471 µM	32.8	10.3 µM	26.7 µM	6.81 µM	> 75.1 µM	11.8 µM	26.9 µM	14.4 µM	> 46.9	16 µM	35.5 µM	19.7 µM	> 57.3 µM	13.9 µM	28.4 µM
OCc1ccc(-c2nn(Cc3ccccc3)c3ccccc23)o1	15.6 µM and 18.5 µM	47.7 µM and > 56.9 µM	–	> 63.5 µM and 34 µM	24.3 µM and 25.5 µM	> 95.9	18.9 µM and 22.9 µM	72.7 µM and 58.9 µM	10.1 µM and 7.41 µM	63.2 µM and > 42.3 µM	17.2 µM and 18.7 µM	40.8 µM and 39.5 µM	10.2 µM and 28.1 µM	> 100	16.6 µM and 30.7 µM	32.6 µM and > 100 µM	0.253 µM and 0.489 µM	1.02 µM and 3.61 µM	0.268 µM and 0.32 µM	0.972 µM and 1.59 µM
CC(CNC(Cc1ccccc1)c1ccccc1)NC(Cc1ccccc1)c1ccccc1 (stereo not given)	4.18 µM	15 µM	2.16 µM	7.45 µM	2.74 µM	7.84	2.47 µM	9.16 µM	2.48 µM	6.41 µM	2.1 µM	4.99 µM	2.59 µM	10.6	2.18 µM	4.28 µM	3.22 µM	12.5 µM	2.67 µM	6.9 µM
Clc1nc(Cl)c2ncn(Cc3ccc(COc4cccc(OCc5ccc(Cn6cnc7c(Cl)nc(Cl)nc76)cc5)c4)cc3)c2n1	> 100 µM	> 100 µM	> 100 µM	> 100 µM	17.2 µM	> 100	91.4 µM	> 100 µM	25.9 µM	> 100 µM	26.7 µM	> 100 µM	15.1 µM	> 100	28.2 µM	> 100 µM	27 µM	> 100 µM	24.9 µM	> 100 µM
CCCCCCCCCCCCCC(=O)CBr	–	50.7 µM	–	3.13 µM	–	2.6	–	39.9 µM	–	17.4 µM	–	32 µM	–	28.8	–	26.3 µM	–	29.7 µM	–	17.7 µM
Cc1nc2sc(C(=O)Nc3ccccc3)c(N)c2cc1C(=O)/C=C/c1ccccc1	2.08 µM	4.91 µM	1.87 µM	3.74 µM	2.22 µM	> 100	2.26 µM	6.48 µM	2.41 µM	17 µM	1.54 µM	3.73 µM	3.1 µM	18.5	3.37 µM	14.6 µM	2.3 µM	6.39 µM	2.11 µM	5.29 µM
COc1cc(-c2cn(-c3ccc(Cl)cc3)c(C)c2C(=O)C(F)(F)F)cc(OC)c1OC	17.9 µM	> 100 µM	> 100 µM	> 100 µM	16.1 µM	> 100	51.3 µM	> 100 µM	22.7 µM	> 100 µM	> 100 µM	> 100 µM	25.5 µM	> 100	> 100 µM	> 100 µM	> 100 µM	> 100 µM	14.1 µM	> 100 µM
c1cnc2[nH]cc(-c3csc(-c4cn(CCCCN5CCOCC5)c5ccccc45)n3)c2c1	1.89 µM	4.13 µM	1.74 µM	3.52 µM	1.98 µM	4.03	2.07 µM	4.74 µM	2.02 µM	3.93 µM	1.72 µM	3.2 µM	2.06 µM	5.69	1.94 µM	3.87 µM	2.77 µM	7.24 µM	1.84 µM	3.53 µM
Clc1nc(Cl)c2c(ncn2C/C=C\Cn2cnc3c(Cl)nc(Cl)nc32)n1	2.38 µM	5.99 µM	1.63 µM	3.83 µM	0.573 µM	2.57	1.85 µM	3.5 µM	0.801 µM	21.1 µM	1.93 µM	4.51 µM	1.73 µM	3.28	1.41 µM	2.73 µM	1.85 µM	3.45 µM	1.48 µM	5.9 µM
COc1c(N2CCN(CN3C(=O)C(=Nc4ccc(S(=O)(=O)Nc5ncccn5)cc4)c4ccccc43)C(C)C2)c(F)cc2c(=O)c(C(=O)O)cn(C3CC3)c12 (stereo not given)	> 50 µM	> 50 µM	48 µM	> 50 µM	44.4 µM	> 50	> 50 µM	> 50 µM	11.9 µM	> 50 µM	> 50 µM	> 50 µM	> 50 µM	> 50	20 µM	> 50 µM	11.9 µM	43.7 µM	47 µM	> 50 µM
Cc1cc2c3ccccc3n(C)c2c2c1C(=O)C=CC2=O	–	> 77.8 µM	–	28.9 µM	–	> 36	–	19 µM	–	> 74 µM	–	45.2 µM	–	18.7	–	37.7 µM	–	31.2 µM	–	18.7 µM
COC(=O)CNC(=O)[C@@H](OC)[C@@H]1Cc2cc3cc(OC4CC(OC5CC(O)C(O)C(C)O5)C(O)C(C)O4)c(C)c(O)c3c(O)c2C(=O)[C@H]1OC1CC(OC2CC(OC3CC(C)(O)C(O)C(C)O3)C(O)C(C)O2)C(O)C(C)O1 (stereo not given in full)	0.183 µM	> 50 µM	0.243 µM	3.84 µM	0.186 µM	> 50	0.219 µM	> 50 µM	0.192 µM	> 50 µM	0.166 µM	1.25 µM	0.305 µM	5.4	0.147 µM	0.712 µM	0.402 µM	> 50 µM	0.146 µM	1.58 µM
CC1OC2CC(=O)OC2C2=C1C(=O)c1c(O)c3c(c(O)c1C2=O)C1CC(O)C3(O)C(C)O1 (stereo not given)	0.869 µM	7.74 µM	0.224 µM	0.613 µM	0.26 µM	13.6	0.534 µM	1.8 µM	0.336 µM	11.5 µM	0.264 µM	0.591 µM	0.381 µM	1.23	0.701 µM	2.26 µM	0.302 µM	1.12 µM	0.212 µM	0.525 µM
C=C1CC[C@@H]2[C@](C)(COC(C)=O)[C@H](OC(C)=O)CC[C@@]2(C)[C@@H]1CC(Nc1ccc(S(=O)(=O)Nc2nccc(C)n2)cc1)C1=CCOC1=O (stereo not given in full)	8.19 µM	21.9 µM	3.56 µM	12.5 µM	0.073 µM	3.09	13.9 µM	27.1 µM	2.97 µM	21.7 µM	2.92 µM	10.4 µM	4.37 µM	15.8	6.01 µM	20 µM	4.94 µM	15.8 µM	4.8 µM	16.4 µM
O=C(CCl)N1c2ccccc2Sc2c1ccc1ccccc21	9.52 µM	30.3 µM	2.05 µM	5.04 µM	0.696 µM	36.6	12.5 µM	25.8 µM	2.98 µM	13 µM	2.41 µM	7.06 µM	2.56 µM	6.18	17.4 µM	32.9 µM	3.86 µM	11.5 µM	2.24 µM	5.6 µM
CCOc1ccc(NCc2cc(OC)c(OC)c(OC)c2)cc1	–	> 100 µM	2.01 µM and 7.61 µM	> 100 µM	0.759 µM and 1.7 µM	> 74.9	–	> 100 µM	–	> 63.1 µM	0.0789 µM and 0.0919 µM	> 100 µM	–	> 100	2.22 µM and 0.429 µM	> 100 µM	> 100 µM	> 100 µM	–	> 100 µM
OCCCCCCOc1ccc(-c2cc(-c3ccccn3)nc(-c3ccccn3)c2)cc1	–	6.42 µM	–	1.66 µM	–	1.08	–	4.97 µM	–	3.78 µM	–	> 100 µM	–	4.81	–	1.13 µM	–	6.66 µM	–	10.2 µM
Fc1cccc(COc2ccc(Nc3ncnc4cc(-c5ccc[nH]5)sc34)cc2Cl)c1	0.789 µM	4.8 µM	0.681 µM	6.89 µM	0.44 µM	> 25	0.323 µM	3.75 µM	10.7 µM	> 25 µM	6.11 µM	> 25 µM	0.0847 µM	3.84	6.77 µM	> 25 µM	0.482 µM	2.64 µM	9.38 µM	> 25 µM
CN(C)C(=S)N=Nc1c(O)[nH]c2ccccc12	0.465 µM	18.8 µM	0.257 µM	1.26 µM	0.298 µM	–	0.397 µM	11 µM	0.475 µM	> 57.8 µM	0.757 µM	17.3 µM	0.394 µM	5.59	0.8 µM	19.8 µM	0.721 µM	14.7 µM	2.31 µM	17 µM
CC1C(=O)C(C)C(c2ccccc2)N(N=O)C1c1ccccc1 (stereo not given)	–	> 1000 µM	–	> 700 µM	–	> 1000	> 1000 µM	> 1000 µM	–	> 1000 µM	–	346 µM	> 378 µM	> 661	–	623 µM	–	640 µM	–	> 897 µM
CN(C)CCOc1ccc2c(c1)C/C(=C/c1ncc([N+](=O)[O-])n1C)C2=O	–	7.74 µM	–	7.81 µM	–	15.1	–	18 µM	–	> 20 µM	–	11.5 µM	–	5.84	–	3.58 µM	–	10.9 µM	–	14.7 µM
CN(C)c1ccc2cc(-c3ccccc3F)c(N)nc2c1	2.46 µM	16.4 µM	3.17 µM	21 µM	2.04 µM	43.7	6.57 µM	26.7 µM	0.393 µM	16.6 µM	0.288 µM	10.3 µM	3.83 µM	36	2.05 µM	15 µM	3.83 µM	16.2 µM	6.12 µM	18.3 µM
